The text below walks through data of EP4374708A1, “NUTRITIONAL SUPPLEMENT PREPARATION” (Avea Life AG, priority 2022, dated 2024).

Values after ≈ are worked out from the molar mass of the structure shown.

This data set is described as follows: physchem. Particulars: water.

For `O=C(O)[C@@H]1C[C@@H](O)CN1` [hydroxyproline], the concentration in solution (solubility) came to 198 mM (≈ 26 mg/mL). In other words, the millimolar range.
